Results from patent US20120058989A1, “ANTIBACTERIAL FLUOROQUINOLONE ANALOGS” (Achaogen, Inc., priority 2008, published 2012).
≈ marks a conversion by molar mass, not a printed value. Where two headings read alike, the source gives them in different places.

Assays:
Assay in all cases: MIC, CLSI broth microdilution
Format in all cases: cell-based
[1] = test system: P. aeruginosa APAE054 (Fluoroquinolone-resistant); conditions: Pseudomonas aeruginosa
Outline: (§1)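 CLSI M7-A7 broth microdilution; 2-fold serial dilutions in Mueller Hinton Broth, 1:1 with inoculum; final 5×10^5 CFU/mL; 35° C., 20 h, ambient air. QC strains E. coli ATCC 25922, P. aeruginosa ATCC 27853, S. aureus ATCC 29213.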

[2] = test system: S. pneumoniae ASPN001 (Fluoroquinolone-susceptible, ATCC49619); conditions: Streptococcus pneumoniae
Outline: as §1

[3] = test system: S. aureus ASAU001 (Fluoroquinolone-susceptible, ATCC29213); conditions: Staphylococcus aureus
Outline: as §1

[4] = test system: P. aeruginosa APAE001 (Fluoroquinolone-susceptible, ATCC27853); conditions: Pseudomonas aeruginosa
Outline: as §1

[5] = test system: A. baumannii AABA1020 (Fluoroquinolone-resistant); conditions: Acinetobacter baumannii, Table 3
Outline: as §1

[6] = test system: E. coli AECO002 (Fluoroquinolone susceptible); conditions: Escherichia coli, Table 3
Outline: as §1

[7] = test system: A. baumannii AABA1065 (Fluoroquinolone-susceptible); conditions: Acinetobacter baumannii
Outline: as §1

[8] = test system: S. aureus ASAU1033 (Fluoroquinolone-resistant); conditions: Staphylococcus aureus, Table 3
Outline: as §1

[9] = test system: E. coli AECO066 (Fluoroquinolone-resistant); conditions: Escherichia coli
Outline: as §1

[10] = test system: E. coli AECO001 (Fluoroquinolone susceptible, ATCC25922); conditions: Escherichia coli
Outline: as §1

[11] = test system: S. pneumoniae ASPN002 (Fluoroquinolone-susceptible, ATCC10813); conditions: Streptococcus pneumoniae, Table 3
Outline: as §1

[12] = test system: P. aeruginosa APAE002 (Fluoroquinolone susceptible); conditions: Pseudomonas aeruginosa, Table 3
Outline: as §1

[13] = test system: A. baumannii AABA1009 (Fluoroquinolone-resistant); conditions: Acinetobacter baumannii, Table 2, read-out: MIC AABA 1009
Outline: as §1

[14] = test system: E. coli AECO086 (Fluoroquinolone-resistant); conditions: Escherichia coli, Table 3
Outline: as §1

[15] = test system: S. pneumoniae ASPN1027 (Fluoroquinolone-resistant); conditions: Streptococcus pneumoniae
Outline: as §1

[16] = test system: S. aureus ASAU002 (Fluoroquinolone-susceptible, ATCC33591 (MRSA)); conditions: Staphylococcus aureus, Table 3
Outline: as §1

[17] = test system: S. pneumoniae ASPN1018 (Fluoroquinolone-resistant); conditions: Streptococcus pneumoniae, Table 3
Outline: as §1

[18] = test system: S. aureus ASAU1031 (Fluoroquinolone-resistant); conditions: Staphylococcus aureus
Outline: as §1

[19] = Table 2, read-out: MIC APAE 054
[20] = Table 2, read-out: MIC ASPN 001
[21] = Table 2, read-out: MIC ASAU 001
[22] = Table 2, read-out: MIC APAE 001
[23] = Table 2, read-out: MIC AABA 1065
[24] = Table 2, read-out: MIC AECO 066
[25] = Table 2, 35° C., 20 hours, read-out: MIC AECO 001
[26] = Table 2, read-out: MIC ASPN 1027
[27] = Table 2, read-out: MIC ASAU 1031

SMILES	MIC [1, 19] [µg/mL]	MIC ([1]; Table 3) [µg/mL]	MIC [2, 20] [µg/mL]	MIC ([2]; Table 3) [µg/mL]	MIC [3, 21] [µg/mL]	MIC ([3]; Table 3) [µg/mL]	MIC [4, 22] [µg/mL]	MIC ([4]; Table 3) [µg/mL]	MIC [5] [µg/mL]	MIC [6] [µg/mL]	MIC [7, 23] [µg/mL]	MIC ([7]; Table 3) [µg/mL]	MIC [8] [µg/mL]	MIC [9, 24] [µg/mL]	MIC ([9]; Table 3) [µg/mL]	MIC [10, 25] [µg/mL]	MIC ([10]; Table 3) [µg/mL]	MIC [11] [µg/mL]	MIC [12] [µg/mL]	MIC [13] [µg/mL]	also measured
C[C@H]1COc2c(N3CCN(C)CC3)c(F)cc3c(=O)c(C(=O)O)cn1c23 [Levofloxacin, reference compound]	> 8	> 8	1 to 8 (≈ 2.77 to 22.1 µM)	1 to 2 (≈ 2.77 to 5.53 µM)	≤ 1	< 1	1 to 8 (≈ 2.77 to 22.1 µM)	1 to 2 (≈ 2.77 to 5.53 µM)	> 8	< 1	≤ 1	< 1	> 8	> 8	> 8	≤ 1	< 1	1 to 2 (≈ 2.77 to 5.53 µM)	< 1	> 8	MIC [14]: > 8 µg/mL; MIC [15, 26]: > 8 µg/mL; MIC ([15]; Table 3): > 8 µg/mL; MIC [16]: < 1 µg/mL; MIC [17]: > 8 µg/mL; MIC [18, 27]: > 8 µg/mL; MIC ([18]; Table 3): > 8 µg/mL
COc1c(N2C[C@@H]3CCCN[C@@H]3C2)c(F)cc2c(=O)c(C(=O)O)cn(C3CC3)c12 [Moxifloxacin, reference compound]	> 8	> 8	≤ 1	< 1	≤ 1	< 1	1 to 8 (≈ 2.49 to 19.9 µM)	1 to 2 (≈ 2.49 to 4.98 µM)	> 8	< 1	≤ 1	< 1	> 8	> 8	> 8	≤ 1	< 1	< 1	1 to 2 (≈ 2.49 to 4.98 µM)	> 8	MIC [14]: > 8 µg/mL; MIC [15, 26]: 1 to 8 µg/mL (≈ 2.49 to 19.9 µM); MIC ([15]; Table 3): 2 to 8 µg/mL (≈ 4.98 to 19.9 µM); MIC [16]: < 1 µg/mL; MIC [17]: 2 to 8 µg/mL (≈ 4.98 to 19.9 µM); MIC [18, 27]: 1 to 8 µg/mL (≈ 2.49 to 19.9 µM); MIC ([18]; Table 3): 2 to 8 µg/mL (≈ 4.98 to 19.9 µM)
